Among the data in patent US10179773B2, “Isoxazole carboxamides as irreversible SMYD inhibitors” (EPIZYME, INC., priority 2014, dated 2019) are IC50 values, retold here.

Structures are written as SMILES.

For assay [1], the target named is T1, SMYD3 (Homo sapiens (Human), UniProt Q9H7B4). Briefly: SMYD3 Biochemical Assay (MEKK2 protein substrate, 3H-SAM, SPA). As to conditions: 30 min preincubation with SMYD3, average of n = 1 to n = 50, read-out: SMYD3 Biochem IC50. The source says: S-adenosylmethionine (SAM), S-adenosylhomocysteine (SAH), Tris, Tween20, dimethylsulfoxide (DMSO), bovine skin gelatin (BSG), and Tris(2-carboxyethyl)phosphine hydrochloride solution (TCEP) were purchased from Sigma-Aldrich at the highest level of purity possible. ^3H-SAM was purchase from American Radiolabeled Chemicals with a specific activity of 80 Ci/mmol. 384-well opaque white OptiPlates and SPA beads (Perkin Elmer, catalog # RPNQ0013) were purchased from PerkinElmer.
N-terminally GST-tagged MEKK2 (MAP3K2) protein corresponding to reference sequence AAF63496.3 was purchased from Life Technologies (catalog # PV4010). This protein was expressed in High Five insect cells and purified to >85% purity. Protein identity was confirmed by MS/MS analysis after proteolytic digestion. The protein sequence used was:
Full-length human SMYD3 isoform 1 (BAB86333) was inserted into a modified pET21b plasmid containing a His6 tag and TEV and SUMO cleavage sites. Because two common variants of SMYD3 exist in the population, site directed mutagenesis was subsequently performed to change amino acid 13 from an asparagine to a lysine, resulting in plasmid pEPZ533. A lysine at position 13 conforms to the more commonly occurring sequence (NP_001161212).
E. coli (BL21 codonplus RIL strain, Stratagene) were transformed with plasmid pEPZ553 by mixing competent cells and plasmid DNA and incubating on ice for 30 minutes followed by heat shock at 42° C. for 1 minute and cooling on ice for 2 minutes. Transformed cells were grown and selected on LB agar with 100 μg/mL ampicillin and 17 μg/mL chloramphenicol at 37° C. overnight. A single clone was used to inoculate 200 mL of LB medium with 100 μg/mL ampicillin and 17 μg/mL chloramphenicol and incubated at 37° C. on an orbital shaker at 180 rpm. Once in log growth, the culture was diluted 1:100 into 2 L of LB medium and grown until OD600 was about 0.3 after which the culture was incubated at 15° C. and 160 rpm. Once OD600 reached about 0.4, IPTG was added to a final concentration of 0.1 mM and the cells were grown overnight at 15° C. and 160 rpm. Cells were harvested by centrifugation at 8000 rpm, for 4 minutes at 4° C. and stored at −80° C. for purification.
Expressed full-length human His-tagged SMYD3 protein was purified from cell paste by Nickel affinity chromatography after equilibration of the resin with Buffer A (25 mM Tris, 200 mM NaCl, 5% glycerol, 5 mM β-mercaptoethanol, pH7.8). The column was washed with Buffer B (Buffer A plus 20 mM imidazole) and His-tagged SMYD3 was eluted with Buffer C (Buffer A plus 300 mM imidazole). The His tag, TEV and SUMO cleavage sites were removed generating native SMYD3 by addition of ULP1 protein at a ratio of 1:200 (ULP1:SMYD3). Imidazole was removed by dialysis overnight in Buffer A. The dialyzed solution was applied to a second Nickel column and the native SMYD3 protein was collected from the column flow-through. The flow-through was dialyzed in Buffer D (25 mM Tris, 5% glycerol, 5 mM β-mercaptoethanol, 50 mM NaCl, pH7.8) and ULP1 was removed using a Q sepharose fast flow column. SMYD3 was eluted in Buffer A and further purified using an S200 size-exclusion column equilibrated with Buffer A. SMYD3 was concentrated to 2 mg/mL with a final purity of 89%.
The assays were all performed in a buffer consisting of 25 mM Tris-Cl pH 8.0, 1 mM TCEP, 0.005% BSG, and 0.005% Tween 20, prepared on the day of use. Compounds in 100% DMSO (1 ul) were spotted into a 384-well white opaque OptiPlate using a Bravo automated liquid handling platform outfitted with a 384-channel head (Agilent Technologies). DMSO (1 ul) was added to Columns 11, 12, 23, 24, rows A-H for the maximum signal control and 1 ul of SAH, a known product and inhibitor of SMYD3, was added to columns 11, 12, 23, 24, rows I-P for the minimum signal control. A cocktail (40 ul) containing the SMYD3 enzyme was added by Multidrop Combi (Thermo-Fisher). […]

Assay [2] concerns the target T1, SMYD3. Nature of the assay: SMYD3 Cell Assay (Trimethyl-MEKK2 In-Cell Western, 293T/17 cells). In kind it is cell-based. As to conditions: 293T/17 cells transfected with MEKK2-flag and SMYD3; 24 hours; trimethyl-MEKK2 signal; average of n = 1 to n = 50. The source says: 293T/17 adherent cells were purchased from ATCC (American Type Culture Collection), Manassas, Va., USA. MEM/Glutamax medium, Optimem Reduced Serum medium, penicillin-streptomycin, 0.05% trypsin and 1× D-PBS were purchased from Life Technologies, Grand Island, N.Y., USA. PBS-10× was purchased from Ambion, Life Technologies, Grand Island, N.Y., USA. PBS with Tween 20 (PBST (10×)) was purchased from KPL, Gaithersburg, Md., USA. Tet System FBS-approved FBS US Source was purchased from Clontech, Mountain View, Calif., USA. Odyssey blocking buffer, 800CW goat anti-rabbit IgG (H+L) antibody, 680CW Goat anti-mouse IgG (H+L) and Licor Odyssey infrared scanner were purchased from Licor Biosciences, Lincoln, Nebr., USA. Tri-methyl-Lysine [A260]-MEKK2 antibody, MEKK2 and SMYD3 plasmids were made at Epizyme. Anti-flag monoclonal mouse antibody was purchased from Sigma, St. Louis, Mo., USA. Methanol was purchased from VWR, Franklin, Mass., USA. 10% Tween 20 was purchased from KPL, Inc., Gaithersburg, Md., USA. Fugene was purchased from Promega, Madison, Wis., USA. The Biotek ELx405 was purchased from BioTek, Winooski, Vt., USA. The multidrop combi was purchased from Thermo Scientific, Waltham, Mass., USA.
293T/17 adherent cells were maintained in growth medium (MEM/Glutamax medium supplemented with 10% v/v Tet System FBS and cultured at 37° C. under 5% CO2.
293T/17 cells were seeded in assay medium at a concentration of 33,333 cells per cm^2 in 30 mL medium per T150 flask and incubated at 37° C. under 5% CO2. Plasmids were prepared for delivery to cells by first mixing 1350 μL Opti-MEM with Fugene (81 μL) in a sterile Eppendorf and incubated for five minutes at room temperature (RT). MEKK2-flag (13.6 ug/T150) MEKK2 p3XFlag-CMV-14 with C-3XFlag and SMYD3 (0.151 ug/T150) SMYD3 p3XFlag-CMV-14 without C-3XFlag plasmids were aliquotted to a 1.7 mL sterile microfuge tube. The gene ID for MEKK2 and SMYD3 is NM_006609.3 and Q9H7B4, respectively. Entire volume of Opti-MEM/Fugene mixture was then added to a microfuge tube containing DNA plasmid, mixed and then incubated ×15 minutes at RT. The medium on the 293T/17 cells was refreshed, and the DNA/Fugene complex is added aseptically to each flask, rocked gently, and incubated at 37 C for 5 hours. Medium was then removed, and cells were washed once with PBS in the flask. Trypsin 0.05% (3 mL) was added and cells incubated for three minutes. Room temperature MEM+10% Tet system FBS was added and cells were mixed gently, and counted using the Vi-cell. Cells were seeded at 100,000 cells/mL in 50 μL MEM/10% Tet FBS/Pen/Strep to a 384 well black/clear poly-D-lysine coated plate containing test agent diluted in DMSO. The final top concentration of test compound was 40 μM. […] Plates were incubated×30 minutes at RT in low-airflow area, followed by incubation at 37° C. under 5% CO2 for 24 hours. Medium was aspirated from all wells of assay plates prior to fixation and permeabilization with ice cold (−20° C.) methanol (90 μL/well) for ten minutes. Plates were rinsed with PBS three times on BioTek ELx405. PBS was removed with a final aspiration, and Odyssey blocking buffer (50 μL/well) was added to each well and incubated for one hour at RT. Primary antibody solution was prepared (anti-trimethyl-MEKK2 at 1:600 dilution plus mouse anti-flag antibody at 1:10,000 dilution in diluent (Odyssey Blocking buffer+0.1% Tween 20)) and 20 μL per well was dispensed using the Multidrop Combi. Assay plates were then sealed with foil, and incubated overnight at 4° C. Plates were washed five times with PBS-Tween (1×) on Biotek ELx405 and blotted on paper towel to remove excess reagent. […]

T1 sequence (Q9H7B4 whole entry): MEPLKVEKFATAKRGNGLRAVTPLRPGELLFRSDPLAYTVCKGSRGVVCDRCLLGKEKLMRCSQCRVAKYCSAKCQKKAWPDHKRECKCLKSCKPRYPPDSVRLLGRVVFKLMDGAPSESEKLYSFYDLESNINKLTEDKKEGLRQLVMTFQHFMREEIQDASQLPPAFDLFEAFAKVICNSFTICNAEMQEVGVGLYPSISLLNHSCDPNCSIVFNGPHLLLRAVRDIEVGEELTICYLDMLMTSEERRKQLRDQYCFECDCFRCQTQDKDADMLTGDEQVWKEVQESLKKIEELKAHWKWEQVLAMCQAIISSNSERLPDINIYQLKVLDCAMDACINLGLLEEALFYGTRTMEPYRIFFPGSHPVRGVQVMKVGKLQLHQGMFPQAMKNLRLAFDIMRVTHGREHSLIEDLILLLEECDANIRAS

Consider `C=CS(=O)(=O)N[C@H]1CC[C@H](NC(=O)c2cc(C3CC3)on2)CC1` [Cpd. No. 2, 5-cyclopropyl-N-((1r,4r)-4-(vinylsulfonamido)cyclohexyl) isoxazole-3-carboxamide], for which the IC50 on SMYD3 [1] came to 31 µM. On the same count and under the same terms, the result for `C=CS(=O)(=O)N1CCC(NC(=O)c2cc(C3CC3)on2)CC1` [compound 9, 5-cyclopropyl-N-(1-(vinylsulfonyl)piperidin-4-yl) isoxazole-3-carboxamide] reads 31.7 µM.

`C=CC(=O)N[C@H]1CC[C@H](NC(=O)c2cc(C3CC3)on2)CC1` [compound 3, N-((1r,4r)-4-acrylamidocyclohexyl)-5-cyclopropylisoxazole-3-carboxamide]: the IC50 at SMYD3 [2] was greater than 10 µM; on SMYD3 [1], 74.1 µM. The matching figures for `C=CS(=O)(=O)N1CCC(NC(=O)c2cc(C3CC3)on2)C[C@H]1C` (stereo partly drawn) [compound 7, 5-cyclopropyl-N-((2R)-2-methyl-1-(vinylsulfonyl)piperidin-4-yl) isoxazole-3-carboxamide]: 2.19 µM and 3.68 µM. The like results for `C=CS(=O)(=O)N1CCC(NC(=O)c2cc(C3CC3)on2)C[C@@H]1C` (stereo partly drawn) [compound 6, 5-cyclopropyl-N-((2S)-2-methyl-1-(vinylsulfonyl)piperidin-4-yl) isoxazole-3-carboxamide] were, in that order, 2.12 µM and 5.27 µM. The like results for `O=C(NC1CCN(C(=O)CCl)CC1)c1cc(C2CC2)on1` [Cpd. No. 4, N-(1-(2-chloroacetyl)piperidin-4-yl)-5-cyclopropylisoxazole-3-carboxamide] were, in that order, 6.65 µM and 33.5 µM. As to `C=CC(=O)N1CCC(NC(=O)c2cc(C3CC3)on2)CC1` [Cpd. No. 5, N-(1-acryloylpiperidin-4-yl)-5-cyclopropylisoxazole-3-carboxamide], the half-inhibitory concentration (IC50) on SMYD3 [2] is greater than 10 µM; at SMYD3 [1], greater than 100 µM. For the compound `C=CS(=O)(=O)N1CCC(NC(=O)c2cc(C3CC3)on2)C1` (centres unmarked) [compound 10, 5-cyclopropyl-N-(1-(vinylsulfonyl)pyrrolidin-3-yl) isoxazole-3-carboxamide], the concentration for half-maximal inhibition (IC50) at SMYD3 [1] was greater than 50 µM. With `C=CS(=O)(=O)N1CC(NC(=O)c2cc(C3CC3)on2)C1` [Cpd. No. 1, 5-cyclopropyl-N-(1-(vinylsulfonyl)azetidin-3-yl) isoxazole-3-carboxamide], the IC50 on SMYD3 [2] and at SMYD3 [1] was greater than 10 µM each time.

Turning to `C=CS(=O)(=O)N[C@H]1CC[C@@H](NC(=O)c2cc(C3CC3)on2)CC1` [compound 8, 5-cyclopropyl-N-((1s,4s)-4-(vinylsulfonamido)cyclohexyl) isoxazole-3-carboxamide], the IC50 against SMYD3 [2] and on SMYD3 [1] was greater than 10 µM in each case.
